Reference: the NIST ThermoML archive (doi:10.1016/j.fluid.2008.09.004)
± gives the expanded uncertainty stated by the source.

How the values were obtained:
[1] = excess molar enthalpy (molar enthalpy of mixing); xn = mol fraction of the nth substance listed; conditions: 303.15 K, 101 kPa, Liquid, Calvet calorimetry
[2] = xn = mol fraction of the nth substance listed; conditions: 101 kPa, Liquid, Vibrating tube method
[3] = molar heat capacity at constant pressure; xn = mol fraction of the nth substance listed; conditions: 101 kPa, Liquid, Small sample (50 mg) DSC

CCCCCCn1cc[n+](C)c1.F[B-](F)(F)F [1-hexyl-3-methylimidazolium tetrafluoroborate] + CCO
[1]
Conditions	excess molar enthalpy [kJ/mol]
x1 = 0.101	1.35 ± 0.11
x1 = 0.2037	2.05 ± 0.16
x1 = 0.3018	2.41 ± 0.19
x1 = 0.3977	2.57 ± 0.21
x1 = 0.4988	2.48 ± 0.2
x1 = 0.6045	2.18 ± 0.17
x1 = 0.6901	1.85 ± 0.15
x1 = 0.7932	1.31 ± 0.11
x1 = 0.8733	0.848 ± 0.068

Conditions	mass density, [2] [kg/m3]	molar heat capacity at constant pressure, [3] [J/K/mol]
293.15 K, x1 = 0.1052	904.3 ± 0.3	152 ± 2.4
293.15 K, x1 = 0.2011	969.7 ± 0.2	184.5 ± 2.9
293.15 K, x1 = 0.2832	1009.1 ± 0.2	209.9 ± 3.3
293.15 K, x1 = 0.3846	1045.5 ± 0.2	240.4 ± 3.7
293.15 K, x1 = 0.4943	1075.1 ± 0.2	272.3 ± 4.2
293.15 K, x1 = 0.5486	1086.6 ± 0.2	288 ± 4.5
293.15 K, x1 = 0.6882	1111.6 ± 0.3	328.8 ± 5.1
293.15 K, x1 = 0.7748	1124 ± 0.3	–
293.15 K, x1 = 0.7879	–	358.6 ± 5.6
293.15 K, x1 = 0.7988	1127.1 ± 0.3	–
293.15 K, x1 = 0.8521	1133.6 ± 0.3	–
293.15 K, x1 = 0.8791	–	387.1 ± 6
298.15 K, x1 = 0.1052	900.2 ± 0.3	153.6 ± 2.4
298.15 K, x1 = 0.2011	965.8 ± 0.2	185.9 ± 2.9
298.15 K, x1 = 0.2832	1005.2 ± 0.2	211.4 ± 3.3
298.15 K, x1 = 0.3846	1041.7 ± 0.2	241.8 ± 3.7
298.15 K, x1 = 0.4943	1071.4 ± 0.2	273.8 ± 4.2
298.15 K, x1 = 0.5486	1082.9 ± 0.2	289.7 ± 4.5
298.15 K, x1 = 0.6882	1108 ± 0.3	330.9 ± 5.1
298.15 K, x1 = 0.7748	1120.5 ± 0.3	–
298.15 K, x1 = 0.7879	–	360.8 ± 5.6
298.15 K, x1 = 0.7988	1123.6 ± 0.3	–
298.15 K, x1 = 0.8521	1130.1 ± 0.3	–
298.15 K, x1 = 0.8791	–	389.4 ± 6
303.15 K, x1 = 0.1052	896.2 ± 0.3	155 ± 2.4
303.15 K, x1 = 0.2011	961.8 ± 0.2	187.3 ± 2.9
303.15 K, x1 = 0.2832	1001.4 ± 0.2	212.8 ± 3.3
303.15 K, x1 = 0.3846	1037.9 ± 0.2	243 ± 3.8
303.15 K, x1 = 0.4943	1067.7 ± 0.2	275.2 ± 4.3
303.15 K, x1 = 0.5486	1079.3 ± 0.2	291.3 ± 4.5
303.15 K, x1 = 0.6882	1104.4 ± 0.3	332.9 ± 5.2
303.15 K, x1 = 0.7748	1117 ± 0.3	–
303.15 K, x1 = 0.7879	–	363 ± 5.6
303.15 K, x1 = 0.7988	1120.1 ± 0.3	–
303.15 K, x1 = 0.8521	1126.6 ± 0.3	–
303.15 K, x1 = 0.8791	–	391.6 ± 6.1
308.15 K, x1 = 0.1052	892.1 ± 0.3	156.6 ± 2.4
308.15 K, x1 = 0.2011	957.9 ± 0.2	188.6 ± 2.9
308.15 K, x1 = 0.2832	997.6 ± 0.2	214.1 ± 3.3
308.15 K, x1 = 0.3846	1034.2 ± 0.2	244.4 ± 3.8
308.15 K, x1 = 0.4943	1064 ± 0.2	276.7 ± 4.3
308.15 K, x1 = 0.5486	1075.6 ± 0.2	293 ± 4.5
308.15 K, x1 = 0.6882	1100.9 ± 0.3	334.9 ± 5.2
308.15 K, x1 = 0.7748	1113.5 ± 0.3	–
308.15 K, x1 = 0.7879	–	365 ± 5.7
308.15 K, x1 = 0.7988	1116.6 ± 0.3	–
308.15 K, x1 = 0.8521	1123.1 ± 0.3	–
308.15 K, x1 = 0.8791	–	393.9 ± 6.1
313.15 K, x1 = 0.1052	888 ± 0.3	158.1 ± 2.5
313.15 K, x1 = 0.2011	954 ± 0.2	189.9 ± 2.9
313.15 K, x1 = 0.2832	993.7 ± 0.2	215.4 ± 3.3
313.15 K, x1 = 0.3846	1030.4 ± 0.2	245.7 ± 3.8
313.15 K, x1 = 0.4943	1060.4 ± 0.2	278.1 ± 4.3
313.15 K, x1 = 0.5486	1072 ± 0.2	294.6 ± 4.6
313.15 K, x1 = 0.6882	1097.4 ± 0.3	336.9 ± 5.2
313.15 K, x1 = 0.7748	1110 ± 0.3	–
313.15 K, x1 = 0.7879	–	367.1 ± 5.7
313.15 K, x1 = 0.7988	1113.1 ± 0.3	–
313.15 K, x1 = 0.8521	1119.7 ± 0.3	–
313.15 K, x1 = 0.8791	–	396.1 ± 6.1
318.15 K, x1 = 0.1052	883.9 ± 0.3	159.8 ± 2.5
318.15 K, x1 = 0.2011	950 ± 0.2	191.2 ± 3
318.15 K, x1 = 0.2832	989.8 ± 0.2	216.7 ± 3.4
318.15 K, x1 = 0.3846	1026.7 ± 0.2	247.1 ± 3.8
318.15 K, x1 = 0.4943	1056.7 ± 0.2	279.6 ± 4.3
318.15 K, x1 = 0.5486	1068.4 ± 0.2	296.2 ± 4.6
318.15 K, x1 = 0.6882	1093.8 ± 0.3	338.9 ± 5.3
318.15 K, x1 = 0.7748	1106.5 ± 0.3	–
318.15 K, x1 = 0.7879	–	369 ± 5.7
318.15 K, x1 = 0.7988	1109.6 ± 0.3	–
318.15 K, x1 = 0.8521	1116.2 ± 0.3	–
318.15 K, x1 = 0.8791	–	398.3 ± 6.2
